The structures appear in SMILES notation. Values joined by “and” are separate entries in the source; they are usually repeats but may differ in a detail not shown here. Identical values can stand only once. Toxic doses and inconclusive results are not listed.

Drawing on PubChem BioAssay AID256 (DTP/NCI, 2004), this text covers T/C for 23 molecules.

This experiment concerns CD2F1 mice, L1210 leukemia ip, survival T/C. Nature of the experiment: NCI In Vivo Anticancer Drug Screen. Data for tumor model L1210 Leukemia (intraperitoneal) in CD2F1 (CDF1) mice. Conditions: higher = longer survival. In outline: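 Each value reflects a quotient of treated over vehicle control outcomes in mice with a transplanted tumor.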
Where [1] appears, read: endpoint: mean survival time, dose: 100.0 mg/kg/injection, schedule: Q01DX009 (ip), vehicle: saline with Tween-80.
[2] abbreviates: endpoint: mean survival time, dose: 100.0 mg/kg/injection, schedule: Q04DX003 (ip), vehicle: saline with Tween-80.
Where [3] appears, read: endpoint: mean survival time, dose: 200.0 mg/kg/injection, schedule: Q01DX009 (ip), vehicle: saline with Tween-80.
[4] abbreviates: endpoint: mean survival time, dose: 200.0 mg/kg/injection, schedule: Q04DX003 (ip), vehicle: saline with Tween-80.
The mark [5] stands for this setting: endpoint: mean survival time, dose: 400.0 mg/kg/injection, schedule: Q01DX009 (ip), vehicle: saline with Tween-80.
The mark [6] stands for this setting: endpoint: mean survival time, dose: 400.0 mg/kg/injection, schedule: Q04DX003 (ip), vehicle: saline with Tween-80.
The mark [7] stands for this setting: endpoint: mean survival time, dose: 6.25 mg/kg/injection, schedule: Q01DX009 (ip), vehicle: saline.
[8] abbreviates: endpoint: mean survival time, dose: 100.0 mg/kg/injection, schedule: Q01DX009 (ip), vehicle: saline.
Setting [9] is: endpoint: mean survival time, dose: 200.0 mg/kg/injection, schedule: Q01DX009 (ip), vehicle: saline.
The mark [10] stands for this setting: endpoint: mean survival time, dose: 50.0 mg/kg/injection, schedule: Q01DX009 (ip), vehicle: saline.

On to `COc1ccc2nc(C(C)O)[nH]c2c1` (configuration not stated), for which the T/C runs as follows: under setting [1], 89 % of control; under setting [2], 103 % of control; under setting [3], 93 % of control; under setting [4], 101 % of control; under setting [5], 89 % of control; under setting [6], 96 % of control.
For the molecule `C1CCC2[N-]CC3CCCCC3[N-]CC3CCCCC3[N-]CC3CCCCC3[N-]CC2C1.[Cu]` (configuration not stated), the T/C is, setting by setting: (endpoint: mean survival time, dose: 0.39 mg/kg/injection, schedule: Q01DX009 (ip), vehicle: saline) 118 % of control; (endpoint: mean survival time, dose: 0.78 mg/kg/injection, schedule: Q01DX009 (ip), vehicle: saline) 116 % of control; (endpoint: mean survival time, dose: 1.56 mg/kg/injection, schedule: Q01DX009 (ip), vehicle: saline) 104 % of control; (endpoint: mean survival time, dose: 3.12 mg/kg/injection, schedule: Q01DX009 (ip), vehicle: saline) 118 % of control; under setting [7], 119 % of control.
For the molecule `Cc1c2cnccc2c(C)c2c1c1ccccc1n2CCO`, the T/C is 123 % of control under setting [2], 117 % of control under setting [4], 170 % of control under setting [5] and 162 % of control under setting [6].
As for `COc1cccc(C(=O)c2ccncc2C(=O)O)c1OC`, the T/C runs as follows: (endpoint: mean survival time, dose: 12.5 mg/kg/injection, schedule: Q01DX009 (ip), vehicle: other) 110 % of control; (endpoint: mean survival time, dose: 25.0 mg/kg/injection, schedule: Q01DX009 (ip), vehicle: other) 100 % of control; (endpoint: mean survival time, dose: 50.0 mg/kg/injection, schedule: Q01DX009 (ip), vehicle: other) 93 % of control; (endpoint: mean survival time, dose: 100.0 mg/kg/injection, schedule: Q01DX009 (ip), vehicle: other) 96 % of control; (endpoint: mean survival time, dose: 200.0 mg/kg/injection, schedule: Q01DX009 (ip), vehicle: other) 96 % of control.
For the molecule `Nc1nc(N)c2nc(COc3ccc(C(=O)NC(CCC(=O)O)C(=O)O)cc3)cnc2n1` (configuration not stated), the T/C is, setting by setting: (endpoint: mean survival time, dose: 0.38 mg/kg/injection, schedule: Q01DX009 (ip), vehicle: saline with Tween-80) 110 % of control; (endpoint: mean survival time, dose: 0.75 mg/kg/injection, schedule: Q01DX009 (ip), vehicle: saline with Tween-80) 109 % of control; (endpoint: mean survival time, dose: 1.5 mg/kg/injection, schedule: Q01DX009 (ip), vehicle: sodium bicarbonate) 168 % of control; (endpoint: mean survival time, dose: 3.0 mg/kg/injection, schedule: Q01DX009 (ip), vehicle: saline with Tween-80) 95 % of control; (endpoint: mean survival time, dose: 3.0 mg/kg/injection, schedule: Q01DX009 (ip), vehicle: sodium bicarbonate) 179 % of control; (endpoint: mean survival time, dose: 6.0 mg/kg/injection, schedule: Q01DX009 (ip), vehicle: sodium bicarbonate) 157 % of control.
Consider `CC(=O)c1cccc2cccc([N+](=O)[O-])c12`, for which the T/C under setting [1] was 101 % of control; the T/C under setting [2] was 102 % of control; the T/C under setting [3] is 102 % of control; the T/C under setting [4] was 102 % of control; the T/C under setting [5] was 102 % of control; the T/C under setting [6] is 100 % of control.
As to `CCCCCCCCCCCc1nc(N)n[nH]1`, the T/C is, setting by setting: under setting [2], 98 % of control; under setting [4], 102 % of control; under setting [6], 102 % of control.
Consider `N#CC(C#N)=NNc1ccc(S(=O)(=O)O)cc1`, for which the T/C under setting [8] was 93 % of control; the T/C under setting [9] is 95 % of control; the T/C (endpoint: mean survival time, dose: 400.0 mg/kg/injection, schedule: Q01DX009 (ip), vehicle: saline) is 95 % of control.
Regarding `CC1CN1C(=O)NCCCCCCNC(=O)N1CC1C` (configuration not stated), the T/C is 89 % of control (endpoint: mean survival time, dose: 0.31 mg/kg/injection, schedule: Q01DX009 (ip), vehicle: Klucel (hydroxypropylcellulose) (HPC)); 119 % of control and 101 % of control (endpoint: mean survival time, dose: 0.63 mg/kg/injection, schedule: Q01DX009 (ip), vehicle: Klucel (hydroxypropylcellulose) (HPC)); 97 % of control (endpoint: mean survival time, dose: 1.25 mg/kg/injection, schedule: Q01DX009 (ip), vehicle: Klucel (hydroxypropylcellulose) (HPC)); 98 % of control (endpoint: mean survival time, dose: 2.5 mg/kg/injection, schedule: Q01DX001 (ip), vehicle: Klucel (hydroxypropylcellulose) (HPC)); 110 % of control (endpoint: mean survival time, dose: 2.5 mg/kg/injection, schedule: Q01DX009 (ip), vehicle: Klucel (hydroxypropylcellulose) (HPC)); 94 % of control (endpoint: mean survival time, dose: 5.0 mg/kg/injection, schedule: Q01DX001 (ip), vehicle: Klucel (hydroxypropylcellulose) (HPC)). In addition, the T/C was 156 % of control (endpoint: mean survival time, dose: 5.0 mg/kg/injection, schedule: Q01DX009 (ip), vehicle: Klucel (hydroxypropylcellulose) (HPC)); 100 % of control (endpoint: mean survival time, dose: 10.0 mg/kg/injection, schedule: Q01DX001 (ip), vehicle: Klucel (hydroxypropylcellulose) (HPC)); 107 % of control (endpoint: mean survival time, dose: 20.0 mg/kg/injection, schedule: Q01DX001 (ip), vehicle: Klucel (hydroxypropylcellulose) (HPC)).
In the case of `Cc1cc2nc(NN)[nH]c2cc1C`, the T/C was 98 % of control under setting [2], 98 % of control under setting [4] and 114 % of control under setting [6].
For the molecule `CC([NH-])C(=O)O.CC([NH-])C(=O)O.CC([NH-])C(=O)O.[Co+3]` (configuration not stated), the T/C reads like this: under setting [7], 98 % of control; (endpoint: mean survival time, dose: 12.5 mg/kg/injection, schedule: Q01DX009 (ip), vehicle: saline) 112 % of control; (endpoint: mean survival time, dose: 25.0 mg/kg/injection, schedule: Q01DX009 (ip), vehicle: saline) 107 % of control; under setting [10], 124 % of control.
As to `CCOC(=O)Nc1cccc2c1-c1ccccc1/C2=N\NC(N)=S`, the T/C is 102 % of control (endpoint: mean survival time, dose: 50.0 mg/kg/injection, schedule: Q01DX001 (ip), vehicle: carboxymethylcellulose (CMC)); 104 % of control (endpoint: mean survival time, dose: 100.0 mg/kg/injection, schedule: Q01DX001 (ip), vehicle: carboxymethylcellulose (CMC)); 98 % of control (endpoint: mean survival time, dose: 200.0 mg/kg/injection, schedule: Q01DX001 (ip), vehicle: carboxymethylcellulose (CMC)); 98 % of control (endpoint: mean survival time, dose: 400.0 mg/kg/injection, schedule: Q01DX001 (ip), vehicle: carboxymethylcellulose (CMC)).
On to `CCCn1c2ccccc2c2ccccc21`, for which the T/C reads like this: (endpoint: mean survival time, dose: 100.0 mg/kg/injection, schedule: Q04DX003 (ip), vehicle: Klucel (hydroxypropylcellulose) (HPC)) 91 % of control; (endpoint: mean survival time, dose: 200.0 mg/kg/injection, schedule: Q04DX003 (ip), vehicle: Klucel (hydroxypropylcellulose) (HPC)) 105 % of control; (endpoint: mean survival time, dose: 400.0 mg/kg/injection, schedule: Q04DX003 (ip), vehicle: Klucel (hydroxypropylcellulose) (HPC)) 96 % of control.
Turning to `CC(=O)OCC(OC(C)=O)C(OC(C)=O)C(OC(C)=O)C(S)S` (configuration not stated), the T/C runs as follows: under setting [2], 103 % of control; under setting [4], 109 % of control; under setting [6], 101 % of control.
For the molecule `CCOC(=O)c1cc(=O)cc(C(=O)OCC)o1`, the T/C reads like this: (endpoint: mean survival time, dose: 100.0 mg/kg/injection, schedule: Q01DX001 (ip), vehicle: saline with Tween-80) 100 % of control; (endpoint: mean survival time, dose: 200.0 mg/kg/injection, schedule: Q01DX001 (ip), vehicle: saline with Tween-80) 100 % of control; (endpoint: mean survival time, dose: 400.0 mg/kg/injection, schedule: Q01DX001 (ip), vehicle: saline with Tween-80) 100 % of control.
Turning to `O=S(=O)(CCCl)c1ccc(Cl)cc1`, the T/C runs as follows: (endpoint: mean survival time, dose: 100.0 mg/kg/injection, schedule: Q04DX002 (ip), vehicle: saline with Tween-80) 96 % of control; (endpoint: mean survival time, dose: 200.0 mg/kg/injection, schedule: Q04DX002 (ip), vehicle: saline with Tween-80) 101 % of control.
On to `O=C(SCN1CCCCC1)c1ccccc1`, for which the T/C is, setting by setting: (endpoint: mean survival time, dose: 50.0 mg/kg/injection, schedule: Q01DX009 (ip), vehicle: saline with Tween-80) 98 % of control; under setting [1], 103 % of control; under setting [2], 97 % of control; under setting [4], 95 % of control.
`CS(=O)(=O)Nc1ccc(C(=O)CCN2CCCCCC2)cc1`: the T/C runs as follows: (endpoint: median survival time, dose: 25.0 mg/kg/injection, schedule: Q01DX009 (ip), vehicle: saline) 98 % of control; (endpoint: median survival time, dose: 50.0 mg/kg/injection, schedule: Q01DX009 (ip), vehicle: saline) 101 % of control; (endpoint: median survival time, dose: 100.0 mg/kg/injection, schedule: Q01DX009 (ip), vehicle: saline) 98 % of control.
On to `O=C(c1ccccc1)C(Cl)Cl`, for which the T/C runs as follows: under setting [10], 95 % of control; under setting [1], 108 % of control; under setting [8], 95 % of control; under setting [9], 106 % of control; under setting [5], 86 % of control.
In the case of `Nc1ccc2ccccc2c1S(=O)(=O)O`, the T/C reads like this: under setting [1], 102 % of control; under setting [3], 93 % of control; under setting [5], 90 % of control.
On to `COP(=O)(CC1CO1)OC` (configuration not stated), for which the T/C was 103 % of control under setting [10], 106 % of control under setting [8] and 98 % of control under setting [9].
Turning to `Cc1cc(=O)[nH]c(-n2nc(N)nc2N)n1`, the T/C was 107 % of control (endpoint: mean survival time, dose: 75.0 mg/kg/injection, schedule: Q01DX001 (ip), vehicle: saline); 101 % of control (endpoint: mean survival time, dose: 150.0 mg/kg/injection, schedule: Q01DX001 (ip), vehicle: saline); 101 % of control (endpoint: mean survival time, dose: 300.0 mg/kg/injection, schedule: Q01DX001 (ip), vehicle: saline).
On to `CCCNC(=O)Oc1cccc(NC(=O)CC)c1`, for which the T/C was 96 % of control under setting [1] and 89 % of control under setting [5].
